Literature values as cited in patent US8980299B2, “Method of making a vascular closure device” (Cordis Corporation, priority 2007, dated 2015).

System: S. aureus
Settings: suitable growth medium; Bhargava et al., Am J Infect Control, June 1996

Which “minimum inhibitory concentration (MIC) against S. aureus” value does the source give for Oc1cc(Cl)ccc1Oc1ccc(Cl)cc1Cl [2,4,4′-trichloro-2′hydroxydiphenyl ether, 2,4,4′-trichloro-2′-hydroxydiphenyl ether] here?
Its value is 0.01 ppm.
